How the values were obtained:
[1] = system: renal brush border membrane vesicles (RBBMVs); experiment: Enzyme-mediated cleavage assay with RBBMVs; format: in vitro ADME, rat; conditions: 10 mg/mL RBBMVs, 37 °C, TLC; for release of [64Cu]Cu-cyclam-G upon incubation with RBBMVs: 10 min–24 h; for release of radiometabolite-X (% of the radioactivity): 24 h
[2] = Urinary radiometabolite assay in normal mice; format: in vivo, mouse; conditions: for urinary radioactivity with tR consistent with [64Cu]Cu-cyclam-G: pilot, 13.3 MBq/12.4 nmol i.v., RP-HPLC
[3] = Ex vivo biodistribution study in normal mice; parameters: species or system mouse; conditions: 3 to 24 h p.i.
U87MG tumor-bearing mice = experiment: PET imaging of U87MG tumor-bearing mice; format: in vivo, mouse; conditions: for rate of reduction in renal radioactivity level (PET): from 1 to 24 h p.i.
[4] = Whole-body dynamic PET in normal mice; conditions: for RRL relative to [64Cu]Cu-cyclam-RaftRGD / renal radioactivity level (RRL): 57.5 min p.i.; for renal radioactivity level (RRL) / radioactivity in the bladder: 2.92–4.26 MBq/0.3 nmol i.v.; for radioactivity in the bladder: by 1 h p.i.
[5] = system: renal brush border enzymes (RBBMVs); experiment: Enzyme inhibition study of RBBMV-mediated cleavage of the GFK linkage; format: biochemical, rat; conditions: 1 mM inhibitor; for inhibition of release of [64Cu]Cu-cyclam-G from [64Cu]Cu-cyclam-GFK(Bz) / inhibition of release of radiometabolite-X from [64Cu]Cu-cyclam-GFK(Bz): RBBMVs 10 mg/mL, 37 °C, 5 or 24 h, TLC; for inhibition of release of [64Cu]Cu-cyclam-G from [64Cu]Cu-cyclam-GFK(Bz) (pilot): RBBMVs 3 mg/mL, 37 °C overnight, RP-HPLC
[6] = Pilot dynamic PET imaging of [64Cu]Cu-cyclam-G in normal mice

Molecule	release of [64Cu]Cu-cyclam-G upon incubation with RBBMVs [1]	release of radiometabolite-X (% of the radioactivity) [1] [%]	urine radioactivity fraction as intact compound ([2]; urine 0–6 h p.i., TLC)	reduction of kidney radioactivity level [3] [%]	reduction of liver radioactivity level [3] [%]	rate of reduction in renal radioactivity level (PET) (U87MG tumor-bearing mice) [%]	inhibition of release of [64Cu]Cu-cyclam-G from [64Cu]Cu-cyclam-GFK(Bz) [5]	inhibition of release of radiometabolite-X from [64Cu]Cu-cyclam-GFK(Bz) [5]	also measured
O=C(CN1CCCNCCNCCCNCC1)NCC(=O)N[C@@H](Cc1ccccc1)C(=O)N[C@@H](CCCCNC(=O)c1ccccc1)C(=O)O [[^64Cu]Cu-cyclam-GFK(Bz), [^64Cu]Cu-cyclam-GFK(benzoyl [Bz])-OH, metal not drawn]	released the expected fragment	43.7	67.6 ± 3.4%						urinary radioactivity with tR consistent with [64Cu]Cu-cyclam-G ([2]; mouse urine 10 min p.i.): 5.9%; urinary radioactivity with tR consistent with [64Cu]Cu-cyclam-G ([2]; mouse urine 2 h p.i.): 13.8%; urine radioactivity fraction as [64Cu]Cu-cyclam-G ([2]; urine 0–6 h p.i., TLC): 27.2 ± 2.5%
C[C@@H]1NC(=O)[C@H](CCCCNC(=O)CO/N=C/C(=O)NCCCC[C@@H]2NC(=O)[C@@H](Cc3ccccc3)NC(=O)[C@H](CC(=O)O)NC(=O)CNC(=O)[C@H](CCCNC(=N)N)NC2=O)NC(=O)CNC(=O)[C@@H]2CCCN2C(=O)[C@H](CCCCNC(=O)CO/N=C/C(=O)NCCCC[C@@H]2NC(=O)[C@@H](Cc3ccccc3)NC(=O)[C@H](CC(=O)O)NC(=O)CNC(=O)[C@H](CCCNC(=N)N)NC2=O)NC(=O)[C@H](CCCCNC(=O)CCNC(=O)CCNC(=O)CCNC(=O)[C@H](CCCCN)NC(=O)[C@H](Cc2ccccc2)NC(=O)CNC(=O)CN2CCCNCCNCCCNCC2)NC(=O)[C@H](CCCCNC(=O)CO/N=C/C(=O)NCCCC[C@@H]2NC(=O)[C@@H](Cc3ccccc3)NC(=O)[C@H](CC(=O)O)NC(=O)CNC(=O)[C@H](CCCNC(=N)N)NC2=O)NC(=O)CNC(=O)[C@@H]2CCCN2C(=O)[C@H](CCCCNC(=O)CO/N=C/C(=O)NCCCC[C@@H]2NC(=O)[C@@H](Cc3ccccc3)NC(=O)[C@H](CC(=O)O)NC(=O)CNC(=O)[C@H](CCCNC(=N)N)NC2=O)NC1=O [[^64Cu]Cu-cyclam-GFK(βA)3-RaftRGD, metal not drawn]	failed to release	22.9	much lower and poorly defined for quantification	74.4	34	75.6 ± 1.8			urine radioactivity fraction as radiometabolite-X ([64Cu]Cu-cyclam-GF) ([2]; urine 0–6 h p.i., TLC): 69.1 ± 4.5%; tumor uptake (PET) (U87MG tumor-bearing mice; U87MG tumor, 1–24 h p.i.): significantly higher than those of the GFK compound; RRL relative to [64Cu]Cu-cyclam-RaftRGD [4]: 2.57 fold
C[C@@H]1NC(=O)[C@H](CCCCNC(=O)CO/N=C/C(=O)NCCCC[C@@H]2NC(=O)[C@@H](Cc3ccccc3)NC(=O)[C@H](CC(=O)O)NC(=O)CNC(=O)[C@H](CCCNC(=N)N)NC2=O)NC(=O)CNC(=O)[C@@H]2CCCN2C(=O)[C@H](CCCCNC(=O)CO/N=C/C(=O)NCCCC[C@@H]2NC(=O)[C@@H](Cc3ccccc3)NC(=O)[C@H](CC(=O)O)NC(=O)CNC(=O)[C@H](CCCNC(=N)N)NC2=O)NC(=O)[C@H](CCCCNC(=O)[C@H](CCCCN)NC(=O)[C@H](Cc2ccccc2)NC(=O)CNC(=O)CN2CCCNCCNCCCNCC2)NC(=O)[C@H](CCCCNC(=O)CO/N=C/C(=O)NCCCC[C@@H]2NC(=O)[C@@H](Cc3ccccc3)NC(=O)[C@H](CC(=O)O)NC(=O)CNC(=O)[C@H](CCCNC(=N)N)NC2=O)NC(=O)CNC(=O)[C@@H]2CCCN2C(=O)[C@H](CCCCNC(=O)CO/N=C/C(=O)NCCCC[C@@H]2NC(=O)[C@@H](Cc3ccccc3)NC(=O)[C@H](CC(=O)O)NC(=O)CNC(=O)[C@H](CCCNC(=N)N)NC2=O)NC1=O [[^64Cu]Cu-cyclam-GFK-RaftRGD, metal not drawn]	failed to release	18.2	27.7 ± 2.4%	61.1	28.0	73.0 ± 2.3			urine radioactivity fraction as radiometabolite-X ([64Cu]Cu-cyclam-GF) ([2]; urine 0–6 h p.i., TLC): 56.9 ± 2.0%; RRL relative to [64Cu]Cu-cyclam-RaftRGD [4]: 2.98 fold
C[C@@H]1NC(=O)[C@H](CCCCNC(=O)CO/N=C/C(=O)NCCCC[C@@H]2NC(=O)[C@@H](Cc3ccccc3)NC(=O)[C@H](CC(=O)O)NC(=O)CNC(=O)[C@H](CCCNC(=N)N)NC2=O)NC(=O)CNC(=O)[C@@H]2CCCN2C(=O)[C@H](CCCCNC(=O)CO/N=C/C(=O)NCCCC[C@@H]2NC(=O)[C@@H](Cc3ccccc3)NC(=O)[C@H](CC(=O)O)NC(=O)CNC(=O)[C@H](CCCNC(=N)N)NC2=O)NC(=O)[C@H](CCCCNC(=O)CN2CCCNCCNCCCNCC2)NC(=O)[C@H](CCCCNC(=O)CO/N=C/C(=O)NCCCC[C@@H]2NC(=O)[C@@H](Cc3ccccc3)NC(=O)[C@H](CC(=O)O)NC(=O)CNC(=O)[C@H](CCCNC(=N)N)NC2=O)NC(=O)CNC(=O)[C@@H]2CCCN2C(=O)[C@H](CCCCNC(=O)CO/N=C/C(=O)NCCCC[C@@H]2NC(=O)[C@@H](Cc3ccccc3)NC(=O)[C@H](CC(=O)O)NC(=O)CNC(=O)[C@H](CCCNC(=N)N)NC2=O)NC1=O [[^64Cu]Cu-cyclam-RaftRGD, [^64Cu]Cu-cyclam-RAFT-c(-RGDfK-)4, metal not drawn]				22.8	27.0	43.0 ± 4.5			
C[C@H](CS)C(=O)N1CCC[C@H]1C(=O)O [captopril]							partially inhibited	partially inhibited	
CC1(C)C[C@@H]1C(=O)N/C(=C\CCCCSC[C@H](N)C(=O)O)C(=O)O [cilastatin]							not inhibited	not inhibited	inhibition of release of [64Cu]Cu-cyclam-G from [64Cu]Cu-cyclam-GFK(Bz) (pilot) [5]: remained unaffected
NC(N)=NCCSCC(CS)C(=O)O (stereo not drawn) [mergetpa]							not inhibited	partially inhibited	
CC(C)C[C@H](NP(=O)(O)O[C@@H]1O[C@@H](C)[C@H](O)[C@@H](O)[C@H]1O)C(=O)N[C@@H](Cc1c[nH]c2ccccc12)C(=O)O [phosphoramidon]							nearly completely inhibited	barely inhibited	inhibition of release of [64Cu]Cu-cyclam-G from [64Cu]Cu-cyclam-GFK(Bz) (pilot) [5]: almost completely inhibited
[^64Cu]Cu-cyclam-Gly-OH									0–6 h urinary radioactivity levels ([2]; normal mice, 7.4 MBq i.v., group values): 34.7 to 50.9 %ID; renal radioactivity level (RRL) [4]: 1.14 ± 0.15 %ID/g; radioactivity in the bladder [4]: > 70 %ID; reduction of renal uptake from peak ([6]; 1.5 to 57.5 min p.i.): 96.7%; renal uptake peak ([6]; 1.5 min p.i., ~7.4 MBq/2 nmol i.v.): 20.3 ± 2.9 %ID/g; renal uptake ([6]; 57.5 min p.i., ~7.4 MBq/2 nmol i.v.): 0.68 ± 0.02 %ID/g; ID excreted in urine ([6]; within 60 min after injection): more than 70 % of ID
[^64Cu]Cu-cyclam-Gly-Phe-OH [[^64Cu]Cu-cyclam-GF]									renal radioactivity level (RRL) [4]: 1.50 ± 0.81 %ID/g; radioactivity in the bladder [4]: > 70 %ID

Source: PMC11799997 (ACS Omega, 2025)
